Legend:
GFAP-DN-erbB4 mice [1] = experiment: Hot plate test (thermal nociception) in GFAP-DN-erbB4 mice treated topically with XIB4035 cream; format: in vivo, mouse; settings: cream 1.2 mM on hind paws twice daily for 4 weeks from P21, vs control cream
Description: (§1) We generated a cream containing XIB4035 (1.2 mM) and applied it directly to the hind paws of GFAP-DN-erbB4 and wild type mice twice daily for a period of 4 weeks starting at the time of weaning (P21). […] Thus, these experiments would test whether activation of Ret signaling has therapeutic effects after disease onset. To control for potential effects of the control cream, mice of both genotypes were treated in the same way with the base cream without the drug. Mice were tested for responses to noxious thermal stimulus prior to the initiation of treatment and every 7 days throughout the treatment period. […] Together, these findings indicate that topical treatment with XIB4035 preserves the ability of mice with SFN to respond to noxious heat stimulus without inducing hypersensitivity.
(§2) Animals and induction of neuropathy using RTX. Transgenic mouse lines used were as previously described (6, 8). Animals were kept in the animal facility with free access to food and water. Behavioral experiments were performed in a quiet environment at the same time of day. […] Paw withdrawal latency was measured as the time required for the mouse to visibly respond to the thermal stimulus, e.g. licking paws, lifting paws, or jumping off of the plate. […] The threshold was determined as the lowest force that evoked a visible withdrawal response. […]

wild type mice [2] = experiment: Hot plate test (thermal nociception) in wild type mice treated topically with XIB4035 cream; format: in vivo; settings: cream 1.2 mM on hind paws twice daily for 4 weeks from P21
Description: as §1, §2

[3] = system: GFAP-DN-erbB4 and wild type mice; experiment: Mechanical sensitivity (von Frey filaments) after topical XIB4035 cream; format: in vivo; settings: all groups (GFAP-DN-erbB4 and wild type) after 4 weeks of topical treatment, 1.2 mM cream
Description: as §1, §2

GFAP-DN-erbB4 mice [4] = experiment: Electron microscopy / morphometric analysis of Remak bundles in GFAP-DN-erbB4 mice; format: in vivo, mouse; settings: 4-week topical treatment, 1.2 mM cream
Description: (§3) Preparation and Use of XIB4035. The cream containing XIB4035 (1.2 mM, Matrix Scientific, Columbia, S.C.) consisted of N-methyl-pyrrolidone (5%), isopropyl myristate (5%) and petroleum jelly (90%). Control cream had the same ingredients without XIB4035. Cream was applied twice daily to the hind paws of isoflurane anesthetized mice starting at P21 for a period of 9 days (for analysis of cell death in sciatic nerves) or 4 weeks (all other studies using GFAP-DN-erbB4). Treatment of RTX-induced neuropathy began at the time of RTX injection or 12 hours after RTX injection and proceeded twice daily for a period of one week.
(§4) Plastic Embedding and Electron Microscopy. Tissue was prepared as in (6). Briefly, mice were perfused intracardially with 2% paraformaldehyde, 2.5% gluteraldehyde and 0.03% picric acid in 0.1 M cacodylate buffer (pH 7.2). Tissue was post-fixed overnight at 4° C. and embedded in Epon. Ultrathin sections were cut, collected on cellodin-coated grids and stained using uranyl acetate and lead citrate. Photographs were taken using the Tecnai G^2 Spirit BioTWIN transmission electron microscope.

GFAP-DN-erbB4 mice [5] = experiment: Cell death detection (TUNEL) in sciatic nerves of GFAP-DN-erbB4 mice; format: in vivo, mouse; settings: sciatic nerve, topical cream 1.2 mM twice daily for 9 days from P21
Description: as §3
Cell Death Detection. Sciatic nerves were dissected from mice perfused with 4% paraformaldehyde in PBS and fixed overnight at 4° C. Nerves were embedded in OCT and 16 µm thick transverse sections were processed for TUNEL as follows. Sections were washed 3 times for 5 minutes with PBS followed by proteinase K digestion (0.02 U/mL) in 10 mM TRIS/HCl pH 7.5 for 30 minutes at 37° C. Digested sections were fixed with 4% paraformaldehyde at room temperature for 20 minutes followed by 3 washes in PBS for 5 minutes. Apoptotic nuclei were identified using the In Situ Cell Death Detection Kit (Roche). Nuclei were stained with DAPI and sections were mounted with Gel-Mount.

GFAP-DN-erbB4 mice [6] = experiment: Footpad skin innervation (PGP9.5 immunohistochemistry) in GFAP-DN-erbB4 mice; format: in vivo, mouse; settings: 4-week topical treatment, 1.2 mM cream
Description: as §3
(§5) Immunohistochemistry. Mice were anesthetized with 2.5% Avertin and footpad skin was removed and immersion fixed in 4% paraformaldehyde, 14% picric acid in 0.1 M phosphate buffer (pH 7.3) overnight at 4° C. and cryoprotected in 20% sucrose overnight at 4° C. Tissues were embedded in OCT and sectioned at 30 µm and stained as floating sections by washing 3 times for 5 minutes in PBS+0.1% Triton-X 100, blocked for 30 minutes in PBS+0.1% Triton-X 100+10% normal goat serum and then incubated, PGP9.5 rabbit polyclonal antibody (Ultraclone, 1:1000), overnight at 4° C. Sections were washed 3 times for 10 minutes in PBS+0.1% Triton-X 100 then incubated in donkey anti-rabbit Alexa-488 (Invitrogen) 1:300 for 2 hours at room temperature. […]

wild type mice [7] = experiment: Footpad skin innervation (PGP9.5 immunohistochemistry) in wild type mice; format: in vivo, mouse; settings: 4-week topical treatment, 1.2 mM cream
Description: as §3, §5

RTX-injected mice [8] = experiment: Hot plate test in resiniferatoxin (RTX)-induced SFN; format: in vivo, mouse
From the text: (§6) As it is unlikely that SFN is always caused by glial dysfunction, we considered it necessary to test the effectiveness of XIB4035 treatment on SFN resulting from a different pathogenic mechanism. Therefore we tested the efficacy of our therapeutic approach in resiniferatoxin (RTX)-induced SFN (9). RTX-induced SFN involves intraperitoneal injection of an ultrapotent capsaicin analog that targets c-fiber terminals by binding to and activating TRPV1 channels resulting in calcium influx, which induces loss of skin innervation and loss of thermal nociception (9). After RTX injection, mice were either treated immediately with XIB4035 or treatment was delayed by 12 hours. Both treatment paradigms yielded similar results.
(§7) Furthermore, innervation of the skin was preserved as a result of XIB4035 treatment in RTX-injected mice. […] Both c-fiber area and the number of fibers per Remak bundle were improved by treatment with XIB4035 in RTX-induced SFN.
as §2, with “water.” for “water. Behavioral experiments were performed in a quiet environment at the same time of day.”

RTX-injected mice [9] = experiment: Skin innervation in RTX-induced SFN; format: in vivo, mouse; settings: topical cream 1.2 mM twice daily for one week
From the text: as §6, §7
Preparation and Use of XIB4035. The cream containing XIB4035 (1.2 mM, Matrix Scientific, Columbia, S.C.) consisted of N-methyl-pyrrolidone (5%), isopropyl myristate (5%) and petroleum jelly (90%). Control cream had the same ingredients without XIB4035. […]

RTX-injected mice [10] = experiment: Remak bundle structure (electron microscopy) in RTX-induced SFN; format: in vivo, mouse; settings: topical cream 1.2 mM twice daily for one week
From the text: as §6, §7, §3, §4

GFR[…]1 GDNF receptor [11] = target: T1, GFR[…]1 GDNF receptor (Homo sapiens, UniProt P56159); settings: human cells; reference 11; cited from earlier work
T1 sequence (P56159 25-429): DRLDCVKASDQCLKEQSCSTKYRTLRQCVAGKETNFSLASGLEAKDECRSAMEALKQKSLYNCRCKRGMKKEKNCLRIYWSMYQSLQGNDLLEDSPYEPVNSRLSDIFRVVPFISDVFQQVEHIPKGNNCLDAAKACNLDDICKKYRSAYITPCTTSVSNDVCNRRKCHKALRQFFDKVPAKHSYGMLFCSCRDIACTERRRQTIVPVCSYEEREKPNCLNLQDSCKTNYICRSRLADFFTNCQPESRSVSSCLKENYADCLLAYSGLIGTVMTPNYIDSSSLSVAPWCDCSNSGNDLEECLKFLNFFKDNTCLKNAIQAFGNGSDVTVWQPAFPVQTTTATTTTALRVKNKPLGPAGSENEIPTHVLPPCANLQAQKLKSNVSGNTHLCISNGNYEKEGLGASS

GFR[…]1 GDNF receptor [12] = target: T2, GFR[…]1 GDNF receptor (Mus musculus, UniProt P97785); settings: murine cells; reference 11; cited from earlier work
T2 sequence (P97785 25-430): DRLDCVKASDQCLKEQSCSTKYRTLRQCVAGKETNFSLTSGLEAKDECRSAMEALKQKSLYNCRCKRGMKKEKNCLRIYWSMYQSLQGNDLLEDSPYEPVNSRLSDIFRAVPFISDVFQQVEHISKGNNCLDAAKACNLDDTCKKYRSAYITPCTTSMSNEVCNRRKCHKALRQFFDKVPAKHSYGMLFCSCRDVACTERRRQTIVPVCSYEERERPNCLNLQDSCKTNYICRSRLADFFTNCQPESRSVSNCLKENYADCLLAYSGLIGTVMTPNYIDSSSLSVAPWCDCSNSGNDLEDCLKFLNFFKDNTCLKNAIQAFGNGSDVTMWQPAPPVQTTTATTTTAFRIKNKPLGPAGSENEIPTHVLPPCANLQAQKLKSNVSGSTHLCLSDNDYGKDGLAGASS

CCN(CC)CCCC(C)Nc1cc(/C=C/c2ccccc2Cl)nc2cc(Cl)ccc12 (centres unmarked) [XIB4035, N4-{7-chloro-2-[(E)-2-(2-chloro-phenyl)-vinyl]-quinolin-4-yl}-N1,N1-diethyl-pentane-1,4-diamine]
thermal nociception (hot plate, response to noxious thermal stimulus) (GFAP-DN-erbB4 mice [1]): dramatic preservation of thermal nociception
behavior in response to noxious thermal stimulus (wild type mice [2]): remained normal
response thresholds to punctate mechanical stimuli (mechanoreception) [3]: no effect on mechanoreception
degeneration of Remak bundles and c-fiber axons (GFAP-DN-erbB4 mice [4]): prevented the degeneration of Remak bundles and c-fiber axons
number of c-fibers per Remak bundle (morphometric analysis) (GFAP-DN-erbB4 mice [4]): preserved
size of c-fiber axons (morphometric analysis) (GFAP-DN-erbB4 mice [4]): preserved
NMSC apoptosis (GFAP-DN-erbB4 mice [5]): significantly reduced
sensory nerve terminals in the footpad skin (GFAP-DN-erbB4 mice [6]): prevented degeneration of sensory nerve terminals
density of nerve terminals in skin (wild type mice [7]): increased the density of nerve terminals
thermal nociception (RTX-injected mice [8]; RTX model, cream 1.2 mM twice daily for one week, started at RTX injection or 12 hours later (similar results)): greatly improved thermal nociception
ability to respond to noxious heat (paw withdrawal latency) (RTX-injected mice [8]; RTX-injected mice, seven days after RTX, vs control cream): remarkable preservation of their ability to respond to noxious heat
innervation of the skin (RTX-injected mice [9]): preserved
c-fiber area (RTX-injected mice [10]; RTX-induced SFN): improved
number of fibers per Remak bundle (RTX-injected mice [10]; RTX-induced SFN): improved
Remak bundle structure (RTX-injected mice [10]; RTX-injected mice): significantly improved
activation of the Ret co-receptor by binding to the GDNF receptor (GFR[…]1 GDNF receptor [11]): activate the Ret co-receptor
activation of the Ret co-receptor by binding to the GDNF receptor (GFR[…]1 GDNF receptor [12]): activate the Ret co-receptor
